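Five concentrations, 48 hours, 96-well plates. Here, GI50 denotes the concentration required for 50% inhibition of growth.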 Calls of active or inactive are those of the source. Cut-off read from the data, not from the text of the source: active = GI50 up to about 1.1 µM and inactive = higher. A value given as a limit tells only on which side of the number the result lay.

The record followed here is ChEMBL document CHEMBL1201862, “PubChem BioAssay data set” (2004).

Test systems include SF-295; NCI-H522; HOP-92; K562; HL-60; SN12C; TK-10; SR; IGROV-1; HCT-15; SF-539; RXF 393; CCRF-CEM; SNB-19; OVCAR-5; ACHN; SK-MEL-28; NCI-H460; M14; OVCAR-8.
Holding throughout (experiment): NCI-60 cell line screen, 48 h

As to `CN1C2CCC1CC(CCNC(c1ccccc1)c1ccccc1)C2` (stereo not given), the GI50 in the assay on SF-295 is 22.5 µM (inactive); in the assay on NCI-H522, 25.2 µM (inactive); in the assay on HOP-92, 18 µM (inactive); in the assay on K562 it was 6.5 µM (inactive); in the assay on HL-60 it was 31 µM (inactive); in the assay on SN12C it was 83 µM (inactive). Further, the GI50 with TK-10 is 22.2 µM (inactive); in the assay with SR, 15.3 µM (inactive); in the assay with IGROV-1 it was 62.7 µM (inactive); in the assay on HCT-15, 33.7 µM; in the assay with SF-539, 17.9 µM (inactive); in the assay with RXF 393 it was 14.4 µM (inactive). For the same compound, the GI50 was 36 µM (inactive) in the assay on CCRF-CEM; > 100 µM (inactive) in the assay with SNB-19; > 100 µM (inactive) in the assay with OVCAR-5; 80.5 µM (inactive) with ACHN; 17.3 µM (inactive) with SK-MEL-28; 83.9 µM (inactive) in the assay with NCI-H460. The GI50 is 11.6 µM (inactive) with M14 and 57 µM (inactive) in the assay on OVCAR-8.

Consider `COc1cc2cc(C(=O)N3C[C@@H](CCl)c4c3cc(N)c3ccccc43)[nH]c2c(OC)c1OC`, for which the GI50 is < 0.01 µM (active) in the assay on SF-295; 0.00283 µM (active) with NCI-H522; 0.0048 µM (active) in the assay with HOP-92; 0.00327 µM (active) in the assay on K562; 0.00318 µM (active) with HL-60; 0.00914 µM (active) in the assay with SN12C. Moreover, the GI50 is < 0.01 µM (active) with TK-10; 0.000455 µM (active) with SR; 0.00611 µM (active) in the assay on IGROV-1; 0.000579 µM with HCT-15; 0.00213 µM (active) in the assay on SF-539; 0.00157 µM (active) in the assay with RXF 393. Besides, the GI50 was 0.000644 µM (active) in the assay on CCRF-CEM; 0.00665 µM (active) in the assay with SNB-19; < 0.01 µM (active) with OVCAR-5; 0.00942 µM (active) in the assay with ACHN; < 0.01 µM (active) in the assay on SK-MEL-28; 0.00183 µM (active) in the assay with NCI-H460. Further, the values for the GI50 with M14 and in the assay on OVCAR-8 were 0.00104 µM (active) and 0.00451 µM (active), respectively.

As to `CCc1cccc(CC)c1NC1=CC(=O)C(=O)c2ccccc21`, the GI50 with SF-295 is 13 µM (inactive); with NCI-H522, 14.1 µM (inactive); in the assay on HOP-92, 15.1 µM (inactive); in the assay with K562 it was 59.4 µM (inactive); in the assay with HL-60, > 100 µM (inactive); in the assay on SN12C it was 27.5 µM (inactive). The GI50 was 23.9 µM (inactive) in the assay with TK-10; 29.9 µM (inactive) with SR; 15.1 µM (inactive) in the assay on IGROV-1; 10.3 µM in the assay on HCT-15; 19.5 µM (inactive) in the assay on SF-539; 23.9 µM (inactive) in the assay with RXF 393. Moreover, the GI50 in the assay on CCRF-CEM was > 100 µM (inactive); in the assay on SNB-19 it was 23 µM (inactive); with OVCAR-5, 17.1 µM (inactive); in the assay on ACHN it was 13.1 µM (inactive); in the assay with SK-MEL-28 it was 15.6 µM (inactive); with NCI-H460, 19 µM (inactive). In addition, the GI50 with M14 was 13.5 µM (inactive); in the assay with OVCAR-8, 16.7 µM (inactive).

Turning to `COC(=O)CCC(=O)CC(=O)C1=NS(=O)(=O)c2nc(S(N)(=O)=O)c(Cl)cc2N1`, the GI50 was > 100 µM (inactive) in the assay with SF-295; 64.3 µM (inactive) in the assay with NCI-H522; > 100 µM (inactive) in the assay on HOP-92; > 100 µM (inactive) in the assay on K562; > 100 µM (inactive) in the assay with HL-60; > 100 µM (inactive) in the assay with SN12C. Besides, the GI50 was > 100 µM (inactive) in the assay on TK-10; > 100 µM (inactive) in the assay with SR; > 100 µM (inactive) in the assay with IGROV-1; more than 100 µM in the assay on HCT-15; > 100 µM (inactive) with SF-539; > 100 µM (inactive) in the assay on RXF 393. Moreover, the GI50 is 45 µM (inactive) in the assay on CCRF-CEM; > 100 µM (inactive) with SNB-19; > 100 µM (inactive) with OVCAR-5; > 100 µM (inactive) in the assay on ACHN; > 100 µM (inactive) with SK-MEL-28; > 100 µM (inactive) with NCI-H460. Also, the GI50 with M14 and in the assay on OVCAR-8 was > 100 µM (inactive) in each case.
